Experimental findings from patent publication US20240376090A1, “ISOXAZOLE DERIVATIVES AS MODULATORS OF THE 5-HT2A SEROTONIN RECEPTOR USEFUL FOR THE TREATMENT OF DISORDERED RELATED THERETO” (Arena Pharmaceuticals, Inc., priority 2020, published 2024) are described below.

pIC50, pKi: −log10 of the molar value.

Usually pIC50 stands for −log10 of the IC50, conventionally taken in molar units. A word on the pKi: it is the Ki on a negative log10 scale, so that one unit is a factor of ten.

Assay [1] deals with T1, 5-HT2A receptor (Homo sapiens (Human), UniProt P28223). Description: HTRF IP-One antagonist assay, 5-HT2A. It is filed as cell-based. To be noted: HEK293 cells stably expressing recombinant human receptor; IP accumulation with 80 nM 5-HT. As to the method: (§1) HEK293 cells stably expressing 5-HT2 receptors were generated using standard procedures. Cells were dilution cloned and clonal cell lines stably expressing the receptors at low levels were selected for pharmacology studies. In radioligand binding studies using a variety of radiolabeled probes, receptor densities in the 2A, 2B and 2C cell lines were estimated to be 50-70, 150-200, and 10-20 fmol/mg, respectively.
T1 sequence (P28223 whole entry): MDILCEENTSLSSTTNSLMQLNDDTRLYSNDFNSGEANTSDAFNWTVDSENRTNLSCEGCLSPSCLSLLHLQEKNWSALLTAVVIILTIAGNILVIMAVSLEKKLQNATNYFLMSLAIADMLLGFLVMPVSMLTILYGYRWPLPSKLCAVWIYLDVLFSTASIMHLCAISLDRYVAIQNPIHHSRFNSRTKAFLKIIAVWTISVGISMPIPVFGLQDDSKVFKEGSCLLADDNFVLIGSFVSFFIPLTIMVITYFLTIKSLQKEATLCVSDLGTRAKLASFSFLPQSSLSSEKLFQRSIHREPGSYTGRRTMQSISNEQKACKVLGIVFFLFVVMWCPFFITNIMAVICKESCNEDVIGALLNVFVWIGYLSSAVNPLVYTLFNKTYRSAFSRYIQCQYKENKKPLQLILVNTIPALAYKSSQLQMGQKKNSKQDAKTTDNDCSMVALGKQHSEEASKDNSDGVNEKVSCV
(§2) Inositol phosphate accumulation assays were performed using the HTRF IP-One assay system developed by Cisbio and generally followed the manufacturer's instructions. Briefly, HEK293 cells stably expressing recombinant human receptors were harvested and resuspended in phenol-red free OptiMEM (ThermoFisher), plated into 384-well assay plates (Perkin Elmer, ProxiPlate-Plus® Cat #6008280) at 10,000 cells/well in a volume of 10 μL/well, and incubated overnight at 37° C., 5% CO2. Test compounds were solubilized and serially diluted in DMSO, and then diluted into Assay Buffer (Tris HCl 20 mM, NaCl 150 mM, LiCl 40 mM, pargyline 25 μM, pH 8) containing 80 nM 5-HT. Test compounds were added to the cells (4 μL/well addition, maximal final assay concentration typically 10 μM) and plates, incubated for 2 hrs at 37° C./5% CO2 and then removed from the incubator and allowed to cool to room temperature for 30 minutes prior to addition of IP-One detection reagents. IP-One detection reagents (6 μL/well) were added and plates incubated for 1 hr at room temperature before reading on an HTRF compatible reader such as a Perkin Elmer EnVision® or BMG PheraStar®. Dose-response experiments utilized 10-point curves, typically starting at 10 μM, with 5-fold serial dilutions. Experiments were performed with triplicate data points and independent replicate experiments were performed to ensure data consistency.
On the technique in general: Time-resolved FRET reads energy transfer from a long-lived donor to a nearby acceptor.

Assay [2] concerns the target 5-HT2C receptor (Homo sapiens (Human), UniProt P28335). The experiment in a line: HTRF IP-One antagonist assay, 5-HT2C. It is filed as cell-based. As to conditions: HEK293 cells stably expressing recombinant human receptor; IP accumulation with 80 nM 5-HT. The method, then:
as §1, §2

The target in assay [3] is 5-HT2B receptor (Homo sapiens (Human), UniProt P41595). The experiment in a line: HTRF IP-One antagonist assay, 5-HT2B. In kind it is cell-based. As to conditions: HEK293 cells stably expressing recombinant human receptor; IP accumulation with 80 nM 5-HT. As to the method: as §1, §2
Chain of 5-HT2B receptor (P41595 whole entry): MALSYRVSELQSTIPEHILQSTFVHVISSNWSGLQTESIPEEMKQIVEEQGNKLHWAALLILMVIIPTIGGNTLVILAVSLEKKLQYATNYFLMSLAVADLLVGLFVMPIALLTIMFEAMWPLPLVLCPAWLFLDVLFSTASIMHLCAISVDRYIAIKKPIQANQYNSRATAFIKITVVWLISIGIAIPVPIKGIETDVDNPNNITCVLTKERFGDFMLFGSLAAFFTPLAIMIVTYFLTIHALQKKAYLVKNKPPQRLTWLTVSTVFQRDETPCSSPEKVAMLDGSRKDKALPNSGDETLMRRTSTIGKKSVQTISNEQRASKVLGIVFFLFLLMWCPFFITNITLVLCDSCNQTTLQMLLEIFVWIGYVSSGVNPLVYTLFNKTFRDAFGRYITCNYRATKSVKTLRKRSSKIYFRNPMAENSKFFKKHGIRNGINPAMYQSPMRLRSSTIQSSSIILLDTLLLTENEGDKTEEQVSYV
Assay [4] concerns the target T1, 5-HT2A receptor. Description: Radioligand binding assay ([3H]5-HT competition), 5-HT2A. As to conditions: [3H]5-HT radioligand, membranes of HEK293 cells expressing recombinant 5-HT2A; Ki from IC50 by Cheng-Prusoff; read-out: 5-HT2A serotonin binding Ki value.

Chain of 5-HT2C receptor (P28335 33-458): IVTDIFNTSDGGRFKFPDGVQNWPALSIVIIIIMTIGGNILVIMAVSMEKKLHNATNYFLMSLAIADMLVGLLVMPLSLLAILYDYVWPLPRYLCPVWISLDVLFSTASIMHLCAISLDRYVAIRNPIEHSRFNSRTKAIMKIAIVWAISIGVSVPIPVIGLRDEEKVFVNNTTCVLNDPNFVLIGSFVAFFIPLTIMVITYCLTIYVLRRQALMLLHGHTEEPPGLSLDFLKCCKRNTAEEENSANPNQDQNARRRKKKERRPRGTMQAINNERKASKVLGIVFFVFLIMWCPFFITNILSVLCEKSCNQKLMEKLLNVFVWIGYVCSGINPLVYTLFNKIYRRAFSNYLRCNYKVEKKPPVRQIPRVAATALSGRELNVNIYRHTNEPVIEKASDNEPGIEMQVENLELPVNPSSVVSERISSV

Turning to `Cc1noc(C)c1-c1cc(NC(=O)C2CC2)ccc1OC[C@H]1CCCCN1` [Compound 169, N-[3-(3,5-dimethylisoxazol-4-yl)-4-[[(2R)-2-piperidyl]methoxy]phenyl]cyclopropanecarboxamide], the values for the pIC50 in assay [1], in assay [2] and in assay [3] were 7.89, not above 4.00 and not above 4.00, respectively. For the same molecule, in assay [4], the pKi was 8.67.

`Cc1nscc1C(=O)Nc1ccc(OC[C@H]2CCCCN2)c(-c2c(C)noc2C)c1` [Compound 187, (R)—N-(3-(3,5-dimethylisoxazol-4-yl)-4-(piperidin-2-ylmethoxy)phenyl)-3-methylisothiazole-4-carboxamide]: the pIC50 in assay [1] was 7.44; in assay [2], not above 4.00; in assay [3], not above 4.00. In addition, in assay [4], the pKi is 8.40.

Consider `Cc1noc(C)c1-c1cc(NC(=O)c2cccn2C)ccc1OC[C@H]1CCCCN1` [Compound 189, (R)—N-(3-(3,5-dimethylisoxazol-4-yl)-4-(piperidin-2-ylmethoxy)phenyl)-1-methyl-1H-pyrrole-2-carboxamide], for which the pIC50 was 7.60 in assay [1], not above 4.00 in assay [2] and not above 4.00 in assay [3]. Moreover, the pKi in assay [4] is 8.41.

Consider `Cc1noc(C)c1-c1cc(NC(=O)[C@H]2C[C@H]2F)ccc1OC[C@H]1CCCCN1` [Compound 191, (1R,2R)—N-(3-(3,5-dimethylisoxazol-4-yl)-4-(((R)-piperidin-2-yl)methoxy)phenyl)-2-fluorocyclopropane-1-carboxamide], for which the pIC50 in assay [1] was 7.22; in assay [2] it was not above 4.00; in assay [3], not above 4.00. Besides, the pKi in assay [4] was 8.12.

In the case of `Cc1ncoc1C(=O)Nc1ccc(OC[C@H]2CCCCN2)c(-c2c(C)noc2C)c1` [Compound 196, (R)—N-(3-(3,5-dimethylisoxazol-4-yl)-4-(piperidin-2-ylmethoxy)phenyl)-4-methyloxazole-5-carboxamide], the results for the pIC50 in assay [1], in assay [2] and in assay [3] were 7.35, not above 4.00 and not above 4.00, respectively. Also, in assay [4], the pKi was 7.99.

On to `COCCNCCOc1ccc(NC(=O)C2CC2)cc1-c1c(C)noc1C` [Compound 197, N-[3-(3,5-dimethylisoxazol-4-yl)-4-[2-(2-methoxyethylamino)ethoxy]phenyl]cyclopropanecarboxamide], for which the pIC50 in assay [1] is 8.31; in assay [2] it was not above 4.00; in assay [3] it was not above 4.00. In assay [4], the pKi is 8.97.

Consider `CC(=N)NCCOc1ccc(NC(=O)C2CC2)cc1-c1c(C)noc1C` [Compound 198, N-(4-(2-acetimidamidoethoxy)-3-(3,5-dimethylisoxazol-4-yl)phenyl)cyclopropanecarboxamide], for which the values for the pIC50 in assay [1], in assay [2] and in assay [3] were 7.64, 5.43 and not above 4.00, respectively. For the same molecule, the pKi in assay [4] was 8.27.

Turning to `Cc1noc(C)c1-c1cc(NC(=O)c2ccccc2)ccc1OC[C@H]1CCCCN1` [Compound 218, (R)—N-(3-(3,5-dimethylisoxazol-4-yl)-4-(piperidin-2-ylmethoxy)phenyl)benzamide], the pIC50 is 7.66 in assay [1], not above 4.00 in assay [2] and not above 4.00 in assay [3]. Also, in assay [4], the negative-log Ki (pKi) is 8.31.

For the molecule `Cc1noc(C)c1-c1cc(NC(=O)c2ccc(F)cc2)ccc1OC[C@H]1CCCCN1` [Compound 219, (R)—N-(3-(3,5-dimethylisoxazol-4-yl)-4-(piperidin-2-ylmethoxy)phenyl)-4-fluorobenzamide], the results for the pIC50 in assay [1], in assay [2] and in assay [3] were 7.98, not above 4.00 and not above 4.00, respectively. In addition, the pKi in assay [4] was 8.53.

Take `COc1cccc(C(=O)Nc2ccc(OC[C@H]3CCCCN3)c(-c3c(C)noc3C)c2)c1` [Compound 220, (R)—N-(3-(3,5-dimethylisoxazol-4-yl)-4-(piperidin-2-ylmethoxy)phenyl)-3-methoxybenzamide]: the pIC50 was 8.59 in assay [1], not above 4.00 in assay [2] and not above 4.00 in assay [3]. In assay [4], the pKi is 9.04.

On to `Cc1noc(C)c1-c1cc(NC(=O)Cc2ccccc2)ccc1OC[C@H]1CCCCN1` [Compound 221, (R)—N-(3-(3,5-dimethylisoxazol-4-yl)-4-(piperidin-2-ylmethoxy)phenyl)-2-phenylacetamide], for which the pIC50 in assay [1] was 7.75; in assay [2], not above 4.00; in assay [3], not above 4.00. Also, in assay [4], the pKi was 8.37.

`COc1cccc(CC(=O)Nc2ccc(OC[C@H]3CCCCN3)c(-c3c(C)noc3C)c2)c1` [Compound 222, (R)—N-(3-(3,5-dimethylisoxazol-4-yl)-4-(piperidin-2-ylmethoxy)phenyl)-2-(3-methoxyphenyl)acetamide]: the figures for the pIC50 in assay [1], in assay [2] and in assay [3] were 7.27, not above 4.00 and not above 4.00, respectively. In addition, the pKi in assay [4] was 8.33.

Take `Cc1noc(C)c1-c1cc(NC(=O)Cc2cccc(F)c2)ccc1OC[C@H]1CCCCN1` [Compound 223, (R)—N-(3-(3,5-dimethylisoxazol-4-yl)-4-(piperidin-2-ylmethoxy)phenyl)-2-(3-fluorophenyl)acetamide]: the figures for the pIC50 in assay [1], in assay [2] and in assay [3] were 7.83, not above 4.00 and not above 4.00, respectively. Further, the pKi in assay [4] is 8.77.

On to `Cc1noc(C)c1-c1cc(NC(=O)Cc2cncc(F)c2)ccc1OC[C@H]1CCCCN1` [Compound 226, (R)—N-(3-(3,5-dimethylisoxazol-4-yl)-4-(piperidin-2-ylmethoxy)phenyl)-2-(5-fluoropyridin-3-yl)acetamide], for which the values for the pIC50 in assay [1], in assay [2] and in assay [3] were 7.96, not above 4.00 and not above 4.00, respectively. For the same molecule, the pKi in assay [4] is 7.98.

As to `CCOC1CC1C(=O)Nc1ccc(OC[C@H]2CCCCN2)c(-c2c(C)noc2C)c1` (stereo partly drawn) [Compound 229, N-(3-(3,5-dimethylisoxazol-4-yl)-4-(((R)-piperidin-2-yl)methoxy)phenyl)-2-ethoxycyclopropane-1-carboxamide], the figures for the pIC50 in assay [1], in assay [2] and in assay [3] were 7.68, not above 4.00 and not above 4.00, respectively. The pKi in assay [4] is 8.33.

Regarding `Cc1nonc1C(=O)Nc1ccc(OC[C@H]2CCCCN2)c(-c2c(C)noc2C)c1` [Compound 232, (R)—N-(3-(3,5-dimethylisoxazol-4-yl)-4-(piperidin-2-ylmethoxy)phenyl)-4-methyl-1,2,5-oxadiazole-3-carboxamide], the pIC50 is 7.61 in assay [1], not above 4.00 in assay [2] and not above 4.00 in assay [3]. Further, the pKi in assay [4] was 8.41.

As to `Cc1noc(C)c1-c1cc(NC(=O)Cc2ccns2)ccc1OC[C@H]1CCCCN1` [Compound 233, (R)—N-(3-(3,5-dimethylisoxazol-4-yl)-4-(piperidin-2-ylmethoxy)phenyl)-2-(isothiazol-5-yl)acetamide], the negative-log IC50 (pIC50) in assay [1] was 8.02; in assay [2], not above 4.00; in assay [3], not above 4.00. Moreover, in assay [4], the pKi was 8.79.

Consider `Cc1noc(C)c1-c1cc(NC(=O)Cc2cnsc2)ccc1OC[C@H]1CCCCN1` [Compound 234, (R)—N-(3-(3,5-dimethylisoxazol-4-yl)-4-(piperidin-2-ylmethoxy)phenyl)-2-(isothiazol-4-yl)acetamide], for which the pIC50 is 8.62 in assay [1], not above 4.00 in assay [2] and not above 4.00 in assay [3]. For the same molecule, the pKi in assay [4] was 9.18.

For the molecule `Cc1noc(C)c1-c1cc(NC(=O)C2(F)CC2)ccc1O[C@@H]1CCNC1` [Compound 238, (R)—N-(3-(3,5-dimethylisoxazol-4-yl)-4-(pyrrolidin-3-yloxy)phenyl)-1-fluorocyclopropane-1-carboxamide], the pIC50 in assay [1] was 7.34; in assay [2] it was not above 4.00; in assay [3], not above 4.00. For the same molecule, in assay [4], the pKi was 8.44.

Consider `Cc1noc(C)c1-c1cc(NC(=O)c2c(F)cnn2C)ccc1OC1CNC1` [Compound 240, N-(4-(azetidin-3-yloxy)-3-(3,5-dimethylisoxazol-4-yl)phenyl)-4-fluoro-1-methyl-1H-pyrazole-5-carboxamide], for which the figures for the pIC50 in assay [1], in assay [2] and in assay [3] were 7.75, not above 4.00 and not above 4.00, respectively. Further, the pKi in assay [4] is 8.87.

With `Cc1noc(C)c1-c1cc(NC(=O)c2ccccc2)ccc1OC1CNC1` [Compound 241, N-(4-(azetidin-3-yloxy)-3-(3,5-dimethylisoxazol-4-yl)phenyl)benzamide], the negative logarithm of the IC50 (pIC50) in assay [1] is 7.46; in assay [2], not above 4.00; in assay [3] it was not above 4.00. In assay [4], the pKi is 8.16.
